Results: patent publication US9521846B2, “Template-fixed peptidomimetics with antimicrobial activity” (priority 2006, dated 2016)
Values after ≈ are worked out from the molar mass of the structure shown. Like-named read-outs stand apart in the source and are kept apart here. Non-standard residues stand in square brackets, D forms with d. Residues, ends and D or L forms follow the SMILES beside them. Dab = NCC[C@H](N)C(=O)O; Abu = CC[C@H](N)C(=O)O

Assays:
HELA cells (Acc57) = assay: Cytotoxicity assay, MTT reduction (LC 50, GI 50); type: cell-based
In short: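 Read-out was MTT reduction (A595) after 48 h peptide exposure (12.5–50 μM, triplicates) of HeLa cells plated at 7.0×10^3/well and precultured 24 h. Growth % was normalised to a time-zero reading. Linear trend interpolation gave the concentration at −50% growth (LC50) and at 50% growth (GI50).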

[1] = tested on: Pseudomonas aeruginosa P8191900; type: cell-based
In short: (§1)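 Antibacterial activity by modified NCCLS broth microdilution in Mueller-Hinton broth + 0.02% BSA. Inoculum was about 10^6 CFU/ml before 1:1 mixing with two-fold serial peptide dilutions.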

[2] = tested on: Pseudomonas aeruginosa IMP 1 Livermore 3140; type: cell-based
In short: as §1

[3] = tested on: Pseudomonas aeruginosa P1021913; type: cell-based
In short: as §1

[4] = tested on: Pseudomonas aeruginosa P1021903; type: cell-based
In short: as §1

[5] = tested on: human red blood cells (hRBC); assay: Hemolysis; type: cell-based
[6] = Plasma stability, human plasma; type: in vitro ADME
[7] = Plasma stability, rat plasma; type: in vitro ADME
P. aeruginosa ATCC 27853 = type: cell-based, Pseudomonas aeruginosa
In short: as §1

[8] = tested on: Pseudomonas aeruginosa (ATCC 27853); assay: In vivo septicemia assay; set-up: species or system CD-1 mice; details: groups of 6 mice
Protocol: Groups of 6 CD-1 (Crl.) derived male mice weighing 24±2 g were used. The mice were each inoculated intravenously (IV) with an LD90-100 of Pseudomonas aeruginosa (ATCC 27853) (9×10^6 CFU/0.5 ml/mouse) in brain heart infusion broth without 5% mucin. Compound at doses of 5, 2.5, 1, 0.5, 0.25 and 0.1 mg/kg, vehicle (0.9% NaCl, 10 ml/kg) was administered subcutaneously (SC) to test animals at 1 hour after bacterial inoculation. Also, an additional group was treated twice with compound at a dose of 5 mg/kg at 1 and 6 hours after bacterial inoculation. Mortality was recorded once daily for 7 days following the bacterial inoculation and an increase of survival of the animals by 50 percent or more (^3 50%) after the bacterial inoculation, relative to vehicle control, indicates significant antimicrobial effect. The MED (ED50) was determined by nonlinear regression using Graph-Pad Prism (Graph Pad Software, USA).
Septicaemia experiment in mice: LD90-100 of Pseudomonas aeruginosa (ATCC 27853) (9×10^6 CFU/0.5 ml/mouse IV and after 1 h Ex. 1 s.c.
Septicaemia experiment in mice: LD90-100 of Pseudomonas aeruginosa (ATCC 27853) (9×10^6 CFU/0.5 ml/mouse IV), and after 1 and 5 h Ex. 40 s.c.
Septicaemia experiment in mice: LD90-100 of Pseudomonas aeruginosa (ATCC 27853) (9×10^6 CFU/0.5 ml/mouse IV), and after 1 and 5 h Ex. 50 s.c.

[9] = average over the five P. aeruginosa strains, Mueller-Hinton broth

Compound	Average MIC (P. aeruginosa) [µg/mL]	Cytotoxicity GI50 Hela cells (HELA cells (Acc57)) [µM]	MIC P. aeruginosa P8191900 ([1]; P8191900) [µg/mL]	MIC P. aeruginosa IMP1 Livermore 3140 ([2]; IMP 1 Livermore 3140) [µg/mL]	MIC P. aeruginosa P1021913 ([3]; P1021913) [µg/mL]	MIC P. aeruginosa P1021903 ([4]; P1021903) [µg/mL]	Hemolysis at 100 μg/ml [5]; 100 [%]	Stability human Plasma t1/2 [6] [h]	Stability rat Plasma t1/2 [7] [h]	MIC P. aeruginosa ATCC 27853 (P. aeruginosa ATCC 27853; ATCC 27853) [µg/mL]	Dead ([8]; 2 × 1 mg/kg, after 1 and 5 h)	Survivors ([8]; 2 × 1 mg/kg, after 1 and 5 h)	other results
CC[C@H](C)[C@@H]1NC(=O)[C@H](Cc2c[nH]c3ccccc23)NC(=O)[C@H]([C@@H](C)O)NC(=O)[C@@H]2CCCN2C(=O)[C@H]2CCCN2C(=O)[C@H](CCN)NC(=O)CNC(=O)[C@H](CCN)NC(=O)[C@H](CCN)NC(=O)[C@H](Cc2c[nH]c3ccccc23)NC(=O)[C@H](CCN)NC(=O)[C@H](CCN)NC(=O)[C@H](CCCCN)NC(=O)[C@H](CCN)NC1=O [Example 2] (cyclo(TWI[Dab]K[Dab][Dab]W[Dab][Dab]G[Dab][dP]P))	0.15	50	0.10 (≈ 0.0638 µM)	0.24 (≈ 0.153 µM)	0.18 (≈ 0.115 µM)	0.16 (≈ 0.102 µM)	0.3	5	5	0.04 (≈ 0.0255 µM)			
CC[C@@H]1NC(=O)[C@H](CCN)NC(=O)[C@H](CCN)NC(=O)[C@H](Cc2c[nH]c3ccccc23)NC(=O)[C@H](CCN)NC(=O)[C@H](CCN)NC(=O)[C@H](CCCCN)NC(=O)[C@H](CCN)NC(=O)[C@H]([C@@H](C)CC)NC(=O)[C@H](Cc2c[nH]c3ccccc23)NC(=O)[C@H]([C@@H](C)O)NC(=O)[C@@H]2CCCN2C(=O)[C@H]2CCCN2C(=O)[C@H](CCN)NC1=O [Example 6] (cyclo(TWI[Dab]K[Dab][Dab]W[Dab][Dab][Abu][Dab][dP]P))	0.13	50	0.10 (≈ 0.0627 µM)	0.24 (≈ 0.15 µM)	0.16 (≈ 0.1 µM)	0.09 (≈ 0.0564 µM)	0.2	5	5	0.05 (≈ 0.0313 µM)			
CC[C@H](C)[C@@H]1NC(=O)[C@H](Cc2c[nH]c3ccccc23)NC(=O)[C@H]([C@@H](C)O)NC(=O)[C@@H]2CCCN2C(=O)[C@H]2CCCN2C(=O)[C@H](CCN)NC(=O)[C@H]([C@@H](C)O)NC(=O)[C@H](CCN)NC(=O)[C@H](CCN)NC(=O)[C@H](Cc2c[nH]c3ccccc23)NC(=O)[C@H](CCN)NC(=O)[C@H](CCN)NC(=O)[C@H](CCCCN)NC(=O)[C@H](CCN)NC1=O [Example 16] (cyclo(TWI[Dab]K[Dab][Dab]W[Dab][Dab]T[Dab][dP]P))	0.11	50	0.09 (≈ 0.0559 µM)	0.24 (≈ 0.149 µM)	0.10 (≈ 0.0621 µM)	0.05 (≈ 0.031 µM)	0.1	5	5	0.05 (≈ 0.031 µM)			
CC[C@H](C)[C@@H]1NC(=O)[C@H](Cc2c[nH]c3ccccc23)NC(=O)[C@H](C)NC(=O)[C@@H]2CCCN2C(=O)[C@H]2CCCN2C(=O)[C@H](CCN)NC(=O)[C@H](C)NC(=O)[C@H](CCN)NC(=O)[C@H](CCN)NC(=O)[C@H](Cc2c[nH]c3ccccc23)NC(=O)[C@H](CCN)NC(=O)[C@H](CCN)NC(=O)[C@H](CCCCN)NC(=O)[C@H](CCN)NC1=O [Example 22] (cyclo(AWI[Dab]K[Dab][Dab]W[Dab][Dab]A[Dab][dP]P))	0.12	50	0.09 (≈ 0.058 µM)	0.24 (≈ 0.155 µM)	0.16 (≈ 0.103 µM)	0.09 (≈ 0.058 µM)	0.2	5	5	0.02 (≈ 0.0129 µM)			
CC[C@H](C)[C@@H]1NC(=O)[C@H](Cc2c[nH]c3ccccc23)NC(=O)[C@H]([C@@H](C)O)NC(=O)[C@@H]2CCCN2C(=O)[C@H]2CCCN2C(=O)[C@H](CCN)NC(=O)[C@H](C)NC(=O)[C@H](CCN)NC(=O)[C@H](CCN)NC(=O)[C@H](Cc2c[nH]c3ccccc23)NC(=O)[C@H](CCN)NC(=O)[C@H](CCN)NC(=O)[C@H](CCCCN)NC(=O)[C@H](CCCCN)NC1=O [Example 24] (cyclo(TWIKK[Dab][Dab]W[Dab][Dab]A[Dab][dP]P))								5	5				Average MIC (P. aeruginosa; [9]): 0.14 µg/mL; MIC P. aeruginosa P8191900 ([1]; Mueller-Hinton broth): 0.16 µg/mL (≈ 0.0994 µM); MIC P. aeruginosa IMP1 Livermore 3140 ([2]; Mueller-Hinton broth): 0.24 µg/mL (≈ 0.149 µM); MIC P. aeruginosa P1021913 ([3]; Mueller-Hinton broth): 0.16 µg/mL (≈ 0.0994 µM); MIC P. aeruginosa P1021903 ([4]; Mueller-Hinton broth): 0.08 µg/mL (≈ 0.0497 µM); Hemolysis at 100 μg/ml ([5]; 100 μg/ml of peptide): 0.1%; MIC P. aeruginosa ATCC 27853 (P. aeruginosa ATCC 27853; Mueller-Hinton broth): 0.05 µg/mL (≈ 0.0311 µM)
CC[C@H](C)[C@@H]1NC(=O)[C@H](Cc2c[nH]c3ccccc23)NC(=O)[C@H]([C@@H](C)O)NC(=O)[C@@H]2CCCN2C(=O)[C@H]2CCCN2C(=O)[C@H](CCN)NC(=O)[C@H](C)NC(=O)[C@H](CCN)NC(=O)[C@H](CCN)NC(=O)[C@H](Cc2c[nH]c3ccccc23)NC(=O)[C@H](CCN)NC(=O)[C@H](CCCCN)NC(=O)[C@H](CCCCN)NC(=O)[C@H](CCN)NC1=O [Example 25] (cyclo(TWI[Dab]KK[Dab]W[Dab][Dab]A[Dab][dP]P))	0.11	50	0.10 (≈ 0.0622 µM)	0.24 (≈ 0.149 µM)	0.13 (≈ 0.0808 µM)	0.05 (≈ 0.0311 µM)	0.1	5	5	0.05 (≈ 0.0311 µM)			
CC[C@H](C)[C@@H]1NC(=O)[C@H](Cc2c[nH]c3ccccc23)NC(=O)[C@H]([C@@H](C)O)NC(=O)[C@@H]2CCCN2C(=O)[C@H]2CCCN2C(=O)[C@H](CCC(N)=O)NC(=O)[C@H](C)NC(=O)[C@H](CCN)NC(=O)[C@H](CCN)NC(=O)[C@H](Cc2c[nH]c3ccccc23)NC(=O)[C@H](CCN)NC(=O)[C@H](CCN)NC(=O)[C@H](CCCCN)NC(=O)[C@H](CCC(N)=O)NC1=O [Example 40] (cyclo(TWIQK[Dab][Dab]W[Dab][Dab]AQ[dP]P))	0.55	50	0.50 (≈ 0.305 µM)	1.00 (≈ 0.611 µM)	0.50 (≈ 0.305 µM)	0.50 (≈ 0.305 µM)	0.7			0.25 (≈ 0.153 µM)	2	4	Dead ([8]; 2 × 0.1 mg/kg, after 1 and 5 h): 6; Survivors ([8]; 2 × 0.1 mg/kg, after 1 and 5 h): 0; Dead ([8]; 2 × 0.3 mg/kg, after 1 and 5 h): 6; Survivors ([8]; 2 × 0.3 mg/kg, after 1 and 5 h): 0; Dead ([8]; 2 × 3 mg/kg, after 1 and 5 h): 0; Survivors ([8]; 2 × 3 mg/kg, after 1 and 5 h): 6; Dead ([8]; 2 × 10 mg/kg, after 1 and 5 h): 0; Survivors ([8]; 2 × 10 mg/kg, after 1 and 5 h): 6
Example 50: backbone-cyclized; P1-P12 Glu-Trp-Ile-Gln-Lys-Dab-Dab-Ser-Dab-Dab-Ala-Ser; template DPro-LPro; SEQ ID NO: 50 (cyclo(EWIQK[Dab][Dab]S[Dab][Dab]AS[dP]P); SMILES CC[C@H](C)[C@@H]1NC(=O)[C@H](Cc2c[nH]c3ccccc23)NC(=O)[C@H](CCC(=O)O)NC(=O)[C@@H]2CCCN2C(=O)[C@H]2CCCN2C(=O)[C@H](CO)NC(=O)[C@H](C)NC(=O)[C@H](CCN)NC(=O)[C@H](CCN)NC(=O)[C@H](CO)NC(=O)[C@H](CCN)NC(=O)[C@H](CCN)NC(=O)[C@H](CCCCN)NC(=O)[C@H](CCC(N)=O)NC1=O)		50									5	1	Average MIC (P. aeruginosa; [9]): 0.56 µg/mL; MIC P. aeruginosa P8191900 ([1]; Mueller-Hinton broth): 0.13 µg/mL; MIC P. aeruginosa IMP1 Livermore 3140 ([2]; Mueller-Hinton broth): 2.00 µg/mL; MIC P. aeruginosa P1021913 ([3]; Mueller-Hinton broth): 0.50 µg/mL; MIC P. aeruginosa P1021903 ([4]; Mueller-Hinton broth): 0.06 µg/mL; Dead ([8]; 2 × 0.1 mg/kg, after 1 and 5 h): 6; Survivors ([8]; 2 × 0.1 mg/kg, after 1 and 5 h): 0; Dead ([8]; 2 × 0.3 mg/kg, after 1 and 5 h): 6; Survivors ([8]; 2 × 0.3 mg/kg, after 1 and 5 h): 0; Dead ([8]; 2 × 3 mg/kg, after 1 and 5 h): 3; Survivors ([8]; 2 × 3 mg/kg, after 1 and 5 h): 3; Dead ([8]; 2 × 10 mg/kg, after 1 and 5 h): 0; Survivors ([8]; 2 × 10 mg/kg, after 1 and 5 h): 6; MIC P. aeruginosa ATCC 27853 (P. aeruginosa ATCC 27853; Mueller-Hinton broth): 0.09 µg/mL
Gentamycin [reference compound]											1	5	Dead ([8]; 1 mg/kg, 1 h after inoculation): 0; Survivors ([8]; 1 mg/kg, 1 h after inoculation): 6
